Laboratory results: patent EP0028279A1, “Phthalide-isoquinoline derivatives, their preparation and their use in medicaments” (CALAIRE CHIMIE S.A., priority 1979, dated 1981)

Legend:
[1] = Acute toxicity (LD50), oral, mouse; conditions: in vivo, read-out: DL 50 (the source's name)
Description: (§1) La toxicité a été déterminée de manière habituelle.

[2] = parameters: species or system souris; conditions: in vivo
Description: as §1

[3] = biological target: T1, histidine décarboxylase de rein de cobaye (Cavia porcellus, UniProt H0WB71); test: Kidney histidine decarboxylase activity after in vivo administration (method of Kosmicki et al.); conditions: guinea pigs sacrificed 5 hours after administration, reduction versus controls, read-out: Activité exprimée en % d'inhibition de l'enzyme
T1 construct: le pourcentage de réduction de l'activité de l'enzyme du rein des animaux traités; from tissue; host or cells: guinea pig kidney
T1 sequence (H0WB71 1-642): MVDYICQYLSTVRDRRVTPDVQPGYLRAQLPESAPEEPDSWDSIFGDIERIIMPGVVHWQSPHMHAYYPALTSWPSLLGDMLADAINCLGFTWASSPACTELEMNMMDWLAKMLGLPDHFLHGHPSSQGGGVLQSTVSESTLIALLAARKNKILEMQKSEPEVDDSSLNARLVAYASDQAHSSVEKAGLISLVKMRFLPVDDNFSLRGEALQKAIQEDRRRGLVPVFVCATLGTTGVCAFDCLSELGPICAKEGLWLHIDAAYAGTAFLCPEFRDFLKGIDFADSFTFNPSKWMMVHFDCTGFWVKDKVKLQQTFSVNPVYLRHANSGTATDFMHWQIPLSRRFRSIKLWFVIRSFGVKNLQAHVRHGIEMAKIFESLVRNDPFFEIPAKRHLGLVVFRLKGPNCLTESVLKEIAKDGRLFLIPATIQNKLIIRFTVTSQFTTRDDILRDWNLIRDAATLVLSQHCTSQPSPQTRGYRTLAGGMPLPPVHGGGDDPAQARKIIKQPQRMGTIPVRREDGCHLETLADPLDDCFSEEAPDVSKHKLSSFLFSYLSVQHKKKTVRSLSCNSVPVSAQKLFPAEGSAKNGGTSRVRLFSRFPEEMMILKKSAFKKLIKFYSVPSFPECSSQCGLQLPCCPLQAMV
Description: L'activité du composé 458L a été comparée à celle de la tritoqualine qui est à la connaissance des Demandeurs, le seul produit utilisé en thérapeutique pour cette propriété. La technique de mesure de l'activité de l'histidine décarboxylase de rein de cobaye a été décrite par B. Kosmicki et al (J. Pharmacol. Paris 1974 - 5 - 3 - 331 - 342). Les cobayes ont été sacrifiés cinq heures après l'administration des substances étudiées. Il a été déterminé par rapport aux témoins le pourcentage de réduction de l'activité de l'enzyme du rein des animaux traités. Les résultats obtenus sont rapportés dans le tableau ci-dessous : […]

With `CCOc1c(N)c2c(c(OCC)c1OCC)C(C1c3c(cc(OC)c(OC)c3OC)CCN1C)OC2=O` (stereo not shown) [458 L] the LD50 [1] was about 6000 mg/kg, the toxicité chronique [2] was “bonne tolérance” and the inhibition at 10 mg/kg [3] was 14%. For the same molecule, the inhibition at 20 mg/kg [3] was 21%, the inhibition at 40 mg/kg [3] was 31% and the inhibition at 60 mg/kg [3] was 41%.
`CCOc1c(N)c2c(c(OCC)c1OCC)C(C1c3c(cc4c(c3OC)OCO4)CCN1C)OC2=O` (stereo not shown) [Tritoqualine, tritoqualine, reference compound] showed an inhibition at 10 mg/kg [3] of 10%, an inhibition at 20 mg/kg [3] of 20% and an inhibition at 40 mg/kg [3] of 20%. The inhibition at 60 mg/kg [3] was 22%.
